# Source: ChEMBL document CHEMBL6153135, “Rational Design of a Potent, Selective, and Metabolically Stable CDK9 Inhibitor to Counteract Osimertinib Resistance through Mcl-1 Suppression and Enhanced BRD4 Co-Targeting” (J Med Chem, 2025)
# Calls of active or inactive are those of the source. No cut-off for these calls is given here.
# Legend:
# NCI-H1975 [1] = experiment: Antitumor activity against human NCI-H1975 cells xenografted in BALB-c nude mouse at 15 mg/kg, iv administered on every two days relative to control; assay type: functional; settings: NCI-H1975, 48 h, read-out: TGI
# [2] = test system: Osimertinib-resistant HCC827 cell; experiment: Inhibition of homologous recombination repair in human Osimertinib-resistant HCC827 cells by KEGG analysis; assay type: functional, cell-based
# [3] = biological target: Glycogen synthase kinase-3 beta (Homo sapiens) (UniProt P49841); experiment: Inhibition of GSK3beta (unknown origin) at 100 nM preincubated for 10 mins followed by substrate/ATP measured after 60 mins by ADP-Glo assay relative to control; settings: time 70.0 min
# Glycogen synthase kinase-3 beta (Homo sapiens), sequence (P49841 whole entry, looked up): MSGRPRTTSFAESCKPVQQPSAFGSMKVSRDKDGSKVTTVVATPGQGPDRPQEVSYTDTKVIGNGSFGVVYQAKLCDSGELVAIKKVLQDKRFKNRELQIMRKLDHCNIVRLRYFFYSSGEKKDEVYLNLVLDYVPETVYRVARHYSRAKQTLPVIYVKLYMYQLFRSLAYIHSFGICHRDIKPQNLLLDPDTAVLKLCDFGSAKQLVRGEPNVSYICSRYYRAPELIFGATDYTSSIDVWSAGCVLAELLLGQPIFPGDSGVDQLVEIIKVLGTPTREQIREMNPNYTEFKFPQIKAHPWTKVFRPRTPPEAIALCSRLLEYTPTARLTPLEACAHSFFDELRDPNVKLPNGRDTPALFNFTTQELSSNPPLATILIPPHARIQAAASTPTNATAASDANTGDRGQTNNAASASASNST
# NCI-H1975 [4] = experiment: Antitumor activity against human NCI-H1975 cells xenografted in BALB-c nude mouse assessed as tumor growth inhibition at 5 mg/kg, iv in presence of JQ1 relative to control; assay type: functional; settings: read-out: TGI
# [5] = test system: Lewis lung carcinoma cell line; experiment: Anti-proliferative activity against Lewis lung carcinoma cells assessed as cell inhibition measured after 72 hrs by MTT assay; assay type: functional, cell-based; settings: Mus musculus
# [6] = test system: Osimertinib-resistant NCI-H1975 cell; experiment: Anti-proliferative activity against human Osimertinib-resistant NCI-H1975 cells assessed as cell inhibition measured after 72 hrs in presence of 250 nM JQ1 by MTT assay; assay type: functional, cell-based
# [7] = Metabolic stability in human liver S9 fraction assessed as clearance measured for 5 to 60 mins by LC-MS/MS analysis; assay type: ADME, subcellular; settings: time 5-60 min, read-out: CLH
# NCI-H1975 [8] = experiment: Anti-proliferative activity against human NCI-H1975 cells assessed as cell inhibition measured after 72 hrs by MTT assay; assay type: functional, cell-based; settings: NCI-H1975, 72 h
# [9] = Drug concentration in tumor of BALB-c nude mouse xenografted with human NCI-H1975 cells at 15 mg/kg, iv measured after 30 mins by LC-MS/MS analysis; assay type: ADME, organism-based, Neoplasm; settings: read-out: Ct
# [10] = AUC (0 to infinity) in Sprague-Dawley rat at 20 mg/kg, po; assay type: ADME, organism-based; settings: in vivo
# [11] = biological target: CDK2/Cyclin A2 (Homo sapiens) (UniProt P24941+P20248); experiment: Inhibition of CDK2/Cyclin A2 (unknown origin) at 100 nM preincubated for 10 mins followed by substrate/ATP measured after 60 mins by ADP-Glo assay relative to control; assay type: protein-complex assay; settings: time 70.0 min
# [12] = test system: Osimertinib-resistant NCI-H1975 cell; experiment: Induction of apoptosis in human Osimertinib-resistant NCI-H1975 cells assessed as necrotic cells at 2 uM incubated for 16 hrs by Annexin V-FITC/PI staining based flow cytometry (reference value: 1.17 %); assay type: functional
# [13] = biological target: Glycogen synthase kinase-3 alpha (Homo sapiens) (UniProt P49840); experiment: Inhibition of GSK3-alpha (unknown origin) at 100 nM preincubated for 10 mins followed by substrate/ATP measured after 60 mins by ADP-Glo assay relative to control; settings: time 70.0 min
# Glycogen synthase kinase-3 alpha (Homo sapiens), sequence (P49840 2-483 limits assumed): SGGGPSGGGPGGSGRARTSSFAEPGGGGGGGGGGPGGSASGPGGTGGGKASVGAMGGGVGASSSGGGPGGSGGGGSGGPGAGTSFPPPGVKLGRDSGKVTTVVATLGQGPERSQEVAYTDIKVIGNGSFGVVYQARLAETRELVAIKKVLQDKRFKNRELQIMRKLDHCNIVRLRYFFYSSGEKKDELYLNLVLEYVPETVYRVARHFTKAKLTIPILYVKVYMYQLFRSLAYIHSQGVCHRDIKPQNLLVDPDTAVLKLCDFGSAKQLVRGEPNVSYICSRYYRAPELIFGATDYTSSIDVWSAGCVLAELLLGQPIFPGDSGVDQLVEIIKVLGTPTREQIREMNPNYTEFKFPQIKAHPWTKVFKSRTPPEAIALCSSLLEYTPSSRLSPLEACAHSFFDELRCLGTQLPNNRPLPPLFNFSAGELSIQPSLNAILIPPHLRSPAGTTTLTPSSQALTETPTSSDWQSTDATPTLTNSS
# [14] = test system: Lung adenocarcinoma organoid; experiment: Anti-tumor activity against patient (#2223)-derived human Lung adenocarcinoma organoid assessed as inhibition of cell viability measured after 96 hrs relative to control; assay type: functional, Neoplasm
# [15] = test system: Lung adenocarcinoma organoid; experiment: Anti-tumor activity against patient (#2223)-derived human Lung adenocarcinoma organoid assessed as inhibition of cell viability measured after 96 hrs; assay type: functional, tissue-based; settings: Neoplasm
# [16] = Metabolic stability in dog liver microsomes assessed as half life measured for 5 to 60 mins by LC-MS/MS analysis; assay type: ADME, Canis lupus familiaris, Microsome; settings: time 5-60 min
# [17] = test system: Osimertinib-resistant HCC827 cell; experiment: Inhibition of Hippo signaling in human Osimertinib-resistant HCC827 cells in presence of JQ1 by KEGG analysis; assay type: cell-based
# [18] = biological target: CDK9/cyclin T1 (Homo sapiens) (UniProt O60563+P50750); experiment: Inhibition of CDK9/cyclin T1 (unknown origin) at 100 nM preincubated for 10 mins followed by substrate/ATP measured after 60 mins by ADP-Glo assay relative to control; assay type: protein-complex assay; settings: time 70.0 min
# [19] = Clearance in BALB/c mouse at 15 mg/kg, po; assay type: ADME, organism-based; settings: in vivo
# CDK2/Cyclin A2 = CDK2/Cyclin A2 (Homo sapiens, UniProt P24941); experiment: Inhibition of CDK2/Cyclin A2 (unknown origin) preincubated for 10 mins followed by substrate/ATP measured after 60 mins by ADP-Glo assay; assay type: protein-complex assay
# [20] = test system: Lung adenocarcinoma organoid; experiment: Anti-tumor activity against multidrug-resistant patient (#2422)-derived human Lung adenocarcinoma organoid assessed as inhibition of cell viability measured after 96 hrs; assay type: functional, tissue-based; settings: Neoplasm
# [21] = test system: Osimertinib-resistant HCC827 cell; experiment: Inhibition of colony formation in human Osimertinib-resistant HCC827 cells at 12.5 nM measured after 14 days in presence of JQ1 by crystal violet staining based analysis; assay type: functional; settings: time 14.0 day
# [22] = Oral bioavailability in Sprague-Dawley rat at 20 mg/kg; assay type: ADME, organism-based; settings: in vivo
# [23] = biological target: Cyclin-dependent kinase 9 (Homo sapiens) (UniProt P50750); experiment: Inhibition of CDK9 in human Osimertinib-resistant HCC827 cells assessed as decrease in Mcl-1 mRNA level by RNA-Seq analysis; assay type: cell-based; settings: Osimertinib-resistant HCC827 cell
# Cyclin-dependent kinase 9 (Homo sapiens), sequence (P50750 whole entry): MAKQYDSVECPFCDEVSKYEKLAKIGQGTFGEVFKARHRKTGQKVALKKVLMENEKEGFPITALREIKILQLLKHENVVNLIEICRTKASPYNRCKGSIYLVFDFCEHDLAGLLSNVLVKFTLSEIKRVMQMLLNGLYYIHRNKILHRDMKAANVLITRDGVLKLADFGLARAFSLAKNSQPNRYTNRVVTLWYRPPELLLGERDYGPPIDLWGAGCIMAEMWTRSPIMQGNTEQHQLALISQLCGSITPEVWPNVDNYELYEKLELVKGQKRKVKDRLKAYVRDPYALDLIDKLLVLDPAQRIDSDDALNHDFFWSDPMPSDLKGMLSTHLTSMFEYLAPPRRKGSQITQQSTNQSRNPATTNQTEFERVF
# [24] = test system: Osimertinib-resistant NCI-H1975 cell; experiment: Induction of apoptosis in human Osimertinib-resistant NCI-H1975 cells assessed as early apoptotic cells at 2 uM incubated for 16 hrs by Annexin V-FITC/PI staining based flow cytometry (reference value: 8.02 %); assay type: functional
# [25] = test system: Lung adenocarcinoma organoid; experiment: Anti-tumor activity against Almonertinib-resistant patient (#2566)-derived human Lung adenocarcinoma organoid assessed as inhibition of cell viability measured after 96 hrs; assay type: functional, tissue-based; settings: Neoplasm
# [26] = biological target: Cyclin-dependent kinase 9 (Homo sapiens) (UniProt P50750); experiment: Inhibition of CDK9 in human Osimertinib-resistant NCI-H1975 cells assessed as decrease in p-RNAPII-ser2 level incubated for 12 hrs by Western blot analysis; assay type: cell-based; settings: Osimertinib-resistant NCI-H1975 cell, dose 50-500 nM
# [27] = test system: Osimertinib-resistant NCI-H1975 cell; experiment: Induction of apoptosis in human Osimertinib-resistant NCI-H1975 cells assessed as viable cells at 2 uM incubated for 16 hrs by Annexin V-FITC/PI staining based flow cytometry (reference value: 89.4 %); assay type: functional; settings: read-out: Activity
# [28] = biological target: Cyclin-dependent kinase 9 (Homo sapiens) (UniProt P50750); experiment: Inhibition of CDK9 in human Osimertinib-resistant HCC827 cells assessed as decrease in Mcl-1 level at 100 nM incubated for 12 hrs in presence of JQ1 by Western blot analysis; assay type: cell-based; settings: Osimertinib-resistant HCC827 cell
# [29] = C0 in BALB/c mouse at 2 mg/kg, iv; settings: in vivo
# [30] = test system: Osimertinib-resistant NCI-H1975 cell; experiment: Induction of apoptosis in human Osimertinib-resistant NCI-H1975 cells assessed as late apoptotic cells at 0.5 uM incubated for 16 hrs by Annexin V-FITC/PI staining based flow cytometry (reference value: 1.42 %); assay type: functional
# [31] = test system: Lung adenocarcinoma organoid; experiment: Anti-tumor activity against Osimertinib-resistant patient (#0085)-derived human Lung adenocarcinoma organoid assessed as inhibition of cell viability measured after 96 hrs relative to control; assay type: functional, Neoplasm
# [32] = test system: Lung adenocarcinoma organoid; experiment: Anti-tumor activity against Osimertinib-resistant patient (#0243)-derived human Lung adenocarcinoma organoid assessed as inhibition of cell viability measured after 96 hrs relative to control; assay type: functional, Neoplasm
# Mus musculus = experiment: In vivo downregulation of c-Myc level in tumor tissue of BALB-c nude mouse xenografted with human Osimertinib-resistant HCC827 cells at 5 mg/kg, iv in presence of JQ1 by Western blot analysis; assay type: functional, organism-based
# [33] = Downregulation of c-Myc level in human Osimertinib-resistant HCC827 cells at 100 nM incubated for 12 hrs in presence of JQ1 by Western blot analysis relative to control; assay type: functional, Osimertinib-resistant HCC827 cell
smiles,measurement,setting,value
CC(=O)N1CCC(NC(=O)c2ccc3cc2OCCCCCCOc2cc(ccc2F)-c2nc(ncc2F)N3)CC1,inhibition in vivo at 15 mg/kg,NCI-H1975 [1],65.8%
same,inhibition,[2],Active
same,inhibition,[3],94.1%
same,inhibition in vivo at 5 mg/kg,NCI-H1975 [4],60%
same,IC50,[5],170 nM
same,IC50,[6],14.6 nM
same,microsomal CLint,[7],14.2 µL/min/mg
same,IC50,NCI-H1975 [8],110 nM
same,concentration at 0.5 h,[9],864 ng/mL
same,AUC(0-inf),[10],5960 ng·h/mL
same,inhibition,[11],17.8%
same,Activity,[12],0.97%
same,inhibition,[13],97.5%
same,Imax,[14],99.9%
same,IC50,[15],< 50 nM
same,half-life,[16],1.25 h
same,inhibition,[17],Active
same,inhibition,[18],97.3%
same,CL/F,[19],350 mL/min/kg
same,IC50,CDK2/Cyclin A2,126 nM
same,IC50,[20],121 nM
same,inhibition,[21],Active
same,bioavailability,[22],14.3%
same,inhibition,[23],Active
same,Activity,[24],26%
same,IC50,[25],48.3 nM
same,inhibition,[26],Dose-dependent-effect
same,viability at 2 µM,[27],51%
same,inhibition,[28],Active
same,C0,[29],1206.2 ng/mL
same,Activity,[30],10%
same,Imax,[31],>98%
same,Imax,[32],>98%
same,Activity,Mus musculus,Active
same,Activity,[33],100%
